This passage reports inhibition results from PMC6934184, “Selective DNA-PKcs inhibition extends the therapeutic index of localized radiotherapy and chemotherapy” (The Journal of Clinical Investigation, 2019).

The assay has as its target T1, PHKG2 (Homo sapiens, UniProt P15735).
T1 construct: purchased Thermo Fisher Scientific (Life Technologies) SelectScreen
Put plainly: SelectScreen Z'LYTE. The format is biochemical. The method, boiled down: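 NU5455 was profiled across the SelectScreen Broad panel of kinase activity and binding assays. Z'LYTE reactions such as CSF1R ran at apparent Km ATP, while the Adapta CAMK1 assay used ATP listed as 10. Values are given as percent.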

T1 sequence (P15735 whole entry): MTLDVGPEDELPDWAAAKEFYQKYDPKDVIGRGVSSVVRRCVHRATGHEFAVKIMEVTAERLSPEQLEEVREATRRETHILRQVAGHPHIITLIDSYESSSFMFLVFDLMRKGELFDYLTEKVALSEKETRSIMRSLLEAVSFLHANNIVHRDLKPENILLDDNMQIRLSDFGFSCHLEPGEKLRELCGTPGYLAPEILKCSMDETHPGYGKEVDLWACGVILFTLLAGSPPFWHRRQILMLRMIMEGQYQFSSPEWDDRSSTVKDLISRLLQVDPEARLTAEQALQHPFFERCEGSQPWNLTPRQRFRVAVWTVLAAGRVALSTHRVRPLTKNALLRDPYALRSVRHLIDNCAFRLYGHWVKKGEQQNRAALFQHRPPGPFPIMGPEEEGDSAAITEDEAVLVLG

Turning to `CN(C(=O)CN1CCOCC1)c1ccc2sc3c(-c4cccc5c(=O)cc(N6CC7CCC(C6)O7)oc45)cccc3c2c1` [NU5455], the inhibition at 1 µM is -3.6%.

As usually defined, the inhibition is the drop in the measured response relative to a control, in per cent.
